Assay results published in patent US20030021796A1, “Method of enhancing T cell immunity by selection of antigen specific T cells” (priority 2001, published 2003).

Tested on: transgenic CD4^+ thymocytes
Experiment: Neonatal thymic organ cultures (NTOC) from peptide-injected TgTCRα^−H-2M^−Ii^− neonates
Type: cell-based, mouse
Details: single i.p. injection just after birth, thymus harvested 24 hours later
Excerpt: The TgTCRα^−H-2M^−Ii^− system enables the visualization of thymocyte positive selection in real time and in the native intrathymic environment. An in vitro system was setup where the transgenic thymocytes undergo efficient positive selection and commit to the CD4^+ lineage. […] These observations agreed with the previous reports in which CD8^+, but not CD4+, T cells could be positively selected by the specific peptide in FTOCs (Kenty et al., 1998; Liblau et al, 1996). Therefore, neonatal thymic organ cultures (NTOC) were established from TgTCRα^−-H-2M^−Ii^− neonates. The neonates received a single i.p. injection of the PCC50V54A peptide just after birth and were sacrificed 24 hours later when their thymuses were harvested.

Sequence: AEGFSYTVANKAKGIT [PCC50V54A, analog of pigeon cytochrome C peptide PCC(43-58)]
- duration of continuous positive selection of CD4^+ thymocytes in NTOC: 4 to 5 days
